Patent publication US4599352A, “Antineoplastic platinum (IV) complexes and compositions” (priority 1984, dated 1986)

Experiments:
IP L1210/Cisplatin [1] = test: Activity against IP-implanted L1210/Cisplatin leukemia resistant to cisplatin, 60 day test (Table 4); assay type: in vivo, Female CD2Fl mice
Procedure: (§1) Biological properties of the compounds of the present invention were determined following the protocol described in Cancer Chemotherapy Reports, Vol. 3, No. 3, 1972 which report is incorporated herein by reference.
Other known mechanisms of resistance for other classes of agents, such as gene amplification or target enzyme change or amplication, also need to be explored. The experiments summarized in Table 3 were conducted at the same time against both sublines using the same drug preparations. […] These experiments were repeated in a second laboratory as documented in Table 4. However, in these experiments the animals were held for 60 rather than 30 days to evaluate whether or not long-term survivors are produced after drug treatment in a more challenging setting. […]
(§2) These experiments (23-00081 3LE31 and 23-00003 3DP3l) were conducted concurrently at the Mason Research Institute, Worcester, MA under the supervision of Dr. William Cobb. See Table 4 for experimental details. The diluent control animals bearing L1210 leukemia lived a median of 8.3 days and gained 1.6 grams by Day 5. […] Female CD2Fl mice were used for these experiments.

IP L1210 leukemia = test: Mouse optimal (highest tolerated) dose, IP L1210 leukemia, Days 1, 5 and 9 schedule (Table 7); assay type: in vivo
Text: *IP L1210 leukemia, Days 1, 5 and 9 schedule. Highest tolerated dose in a
least 2 of 3 experiments (i.e,. animal weight difference (testcontrol)

IP L1210 = test: Activity against IP-implanted L1210 leukemia sensitive to cisplatin, 60 day test (Table 4); assay type: in vivo, Female CD2Fl mice
Procedure: as §1
(§3) Other known mechanisms of resistance for other classes of agents, such as gene amplification or target enzyme change or amplication, also need to be explored. The experiments summarized in Table 3 were conducted at the same time against both sublines using the same drug preparations. […] These experiments were repeated in a second laboratory as documented in Table 4. However, in these experiments the animals were held for 60 rather than 30 days to evaluate whether or not long-term survivors are produced after drug treatment in a more challenging setting.
This experiment (A8-00005 3LE31) was conducted at the Southern Research Institute, Birmingham, Ala. under the supervision of Dr. Daniel Griswold. The protocols were the same as those published previously (Geran et al., Cancer Chemotherapy Reports 3: No. 2, 1972 [Attachment 11]). 10^5 cells were implanted intraperitoneally in CD2Fl male mice on Day 0. Drug treatments were given intraperitoneally as single injections at the doses indicated on Days 1, 5 and 9 after tumor implantation. The diluent was saline except for NSC-271674 where 5% sodium bicarbonate was used. All drugs were prepared fresh on the day of injection, and all were administered in solution. Median survival times for both control and drug-treated mice were determined and expressed as a percentage (% T/C). Body weights were determined on Day 5 and expressed as a weight difference (body weight of the drug-treated animals minus that of the control animals in grams) (T-C). The diluent control animals lived a median of 8.4 days and gained 1.9 grams by Day 5 in this experiment. All animals, including Day 30 survivors, were used in the calculation of median survival times. The log10 change in tumor burden refers to the net log change in viable tumor cell population at the end of therapy (Rx) as compared to the start of therapy; e.g., a […] means that there was a […] and a 3 log change means there was a 1000-fold increase in tumor burden at the end of therapy. The tumor burden at the start of therapy was about 6.1×10^5 cells in this experiment.
as §2

IP L1210/Cisplatin [2] = test: Activity against IP-implanted L1210/Cisplatin leukemia resistant to cisplatin, 30 day test (Table 3); assay type: in vivo, Female CD2Fl mice
Procedure: as §1, §3
This experiment (A8-00005 3LE31) was conducted at the Southern Research Institute, Birmingham, Ala. under the supervision of Dr. Daniel Griswold. The protocols were the same as those published previously (Geran et al., Cancer Chemotherapy Reports 3: No. 2, 1972 [Attachment 11]). 10^5 cells were implanted intraperitoneally in CD2Fl male mice on Day 0. Drug treatments were given intraperitoneally as single injections at the doses indicated on Days 1, 5 and 9 after tumor implantation. The diluent was saline except for NSC-271674 where 5% sodium bicarbonate was used. All drugs were prepared fresh on the day of injection, and all were administered in solution. Median survival times for both control and drug-treated mice were determined and expressed as a percentage (% T/C). Body weights were determined on Day 5 and expressed as a weight difference (body weight of the drug-treated animals minus that of the control animals in grams) (T-C). The diluent control animals lived a median of 8.4 days and gained 1.9 grams by Day 5 in this experiment. All animals, including Day 30 survivors, were used in the calculation of median survival times. The log10 change in tumor burden refers to the net log change in viable tumor cell population at the end of therapy (Rx) as compared to the start of therapy; e.g., a […] means that there was a […] and a 3 log change means there was a 1000-fold increase in tumor burden at the end of therapy. The tumor burden at the start of therapy was about 6.1×10^5 cells in this experiment. […]

`N[C@@H]1CCCC[C@H]1N.O=C([O-])c1ccc(C(=O)[O-])c(C(=O)[O-])c1.[H+].[Pt+2]` [Carboxyphthalato Platinum, carboxyphthalatocyclohexanediamine platinum (II), reference compound] was tested, and the “60 Day Survivors/Total” value (IP L1210/Cisplatin [1]; 3.13 mg/kg/dose) was 6/10, the “Body Weight Difference” value (IP L1210/Cisplatin [1]; 3.13 mg/kg/dose) was -1.2 Grams and the “Median % T/C” value (IP L1210/Cisplatin [1]; 3.13 mg/kg/dose) was 645%. For the same compound, the “60 Day Survivors/Total” value (IP L1210/Cisplatin [1]; 6.25 mg/kg/dose) was 2/10, the “Body Weight Difference” value (IP L1210/Cisplatin [1]; 6.25 mg/kg/dose) was -2.9 Grams and the “Median % T/C” value (IP L1210/Cisplatin [1]; 6.25 mg/kg/dose) was 236%. For the same compound, the “60 Day Survivors/Total” value (IP L1210/Cisplatin [1]; 12.5 mg/kg/dose) was 0/10, the “Body Weight Difference” value (IP L1210/Cisplatin [1]; 12.5 mg/kg/dose) was -5.5 Grams and the “Median % T/C” value (IP L1210/Cisplatin [1]; 12.5 mg/kg/dose) was “Toxic”. For the same compound, the “60 Day Survivors/Total” value (IP L1210/Cisplatin [1]; 25 mg/kg/dose) was 0/10, the “Body Weight Difference” value (IP L1210/Cisplatin [1]; 25 mg/kg/dose) was -3.7 Grams and the “Median % T/C” value (IP L1210/Cisplatin [1]; 25 mg/kg/dose) was “Toxic”. For the same compound, the “60 Day Survivors/Total” value (IP L1210/Cisplatin [1]; 50 mg/kg/dose) was 0/10, the “Median % T/C” value (IP L1210/Cisplatin [1]; 50 mg/kg/dose) was “Toxic” and the “Mouse Optimal Dose (highest tolerated dose in at least 2 of 3 experiments)” value (IP L1210 leukemia) was 12.5 mg/kg. The “60 Day Survivors/Total” value (IP L1210; 3.13 mg/kg/dose) was 2/10, the “Body Weight Difference” value (IP L1210; 3.13 mg/kg/dose) was -2.3 Grams and the “Median % T/C” value (IP L1210; 3.13 mg/kg/dose) was 280%. The “60 Day Survivors/Total” value (IP L1210; 6.25 mg/kg/dose) was 2/10, the “Body Weight Difference” value (IP L1210; 6.25 mg/kg/dose) was -3.5 Grams and the “Median % T/C” value (IP L1210; 6.25 mg/kg/dose) was 313%. The “60 Day Survivors/Total” value (IP L1210; 12.5 mg/kg/dose) was 0/10, the “Body Weight Difference” value (IP L1210; 12.5 mg/kg/dose) was -6.0 Grams and the “Median % T/C” value (IP L1210; 12.5 mg/kg/dose) was “Toxic”. The “60 Day Survivors/Total” value (IP L1210; 25 mg/kg/dose) was 0/10, the “Median % T/C” value (IP L1210; 25 mg/kg/dose) was “Toxic” and the “60 Day Survivors/Total” value (IP L1210; 50 mg/kg/dose) was 0/10. For the same compound, the “Median % T/C” value (IP L1210; 50 mg/kg/dose) was “Toxic”, the “30 Day Survivors/Total” value (IP L1210/Cisplatin [2]; 3.13 mg/kg/dose) was 2/6 and the “Approx. Log10 Change in Tumor Burden at End of RX” value (shortened to “Approx. Log10 Change”) (IP L1210/Cisplatin [2]; 3.13 mg/kg/dose) was about 2.4 log10. For the same compound, the “Median % T/C” value (IP L1210/Cisplatin [2]; 3.13 mg/kg/dose) was 139%, the “30 Day Survivors/Total” value (IP L1210/Cisplatin [2]; 6.25 mg/kg/dose) was 4/6 and the “Approx. Log10 Change” value (IP L1210/Cisplatin [2]; 6.25 mg/kg/dose) was about -5.9 log10. For the same compound, the “Median % T/C” value (IP L1210/Cisplatin [2]; 6.25 mg/kg/dose) was 322%, the “30 Day Survivors/Total” value (IP L1210/Cisplatin [2]; 12.5 mg/kg/dose) was 4/6 and the “Approx. Log10 Change” value (IP L1210/Cisplatin [2]; 12.5 mg/kg/dose) was about -5.9 log10. For the same compound, the “Median % T/C” value (IP L1210/Cisplatin [2]; 12.5 mg/kg/dose) was 322%, the “30 Day Survivors/Total” value (IP L1210/Cisplatin [2]; 25 mg/kg/dose) was 2/6 and the “Approx. Log10 Change” value (IP L1210/Cisplatin [2]; 25 mg/kg/dose) was about -5.9 log10. The “Median % T/C” value (IP L1210/Cisplatin [2]; 25 mg/kg/dose) was 304%, the “30 Day Survivors/Total” value (IP L1210/Cisplatin [2]; 50 mg/kg/dose) was 1/6 and the “Median % T/C” value (IP L1210/Cisplatin [2]; 50 mg/kg/dose) was 129%. For the same compound, the “Reduction in tumor burden over the course of therapy” value (IP L1210/Cisplatin [2]; L1210/Cisplatin) was “at least -5.9 logs” and the “30-day survivors” value (IP L1210/Cisplatin [2]; tolerated doses) was “three or more 30-day survivors”.
